The target of one test is PopP2 (Ralstonia pseudosolanacearum, UniProt Q8Y125). As to conditions: labelled compound; 50 mM HEPES pH 8.0, 30°C, 1 h.
For a further test, the target named is HopZ1a (Pseudomonas syringae, UniProt Q6VE93). The test is described as follows: in vitro autoacetylation assay, […] autoradiography. The class given is biochemical. As to conditions: 100 nM IP6, [14C]-acetyl-CoA, 50 mM HEPES pH 8.0, 30°C, 1 h; activator.
HopZ1a, sequence (Q6VE93 whole entry): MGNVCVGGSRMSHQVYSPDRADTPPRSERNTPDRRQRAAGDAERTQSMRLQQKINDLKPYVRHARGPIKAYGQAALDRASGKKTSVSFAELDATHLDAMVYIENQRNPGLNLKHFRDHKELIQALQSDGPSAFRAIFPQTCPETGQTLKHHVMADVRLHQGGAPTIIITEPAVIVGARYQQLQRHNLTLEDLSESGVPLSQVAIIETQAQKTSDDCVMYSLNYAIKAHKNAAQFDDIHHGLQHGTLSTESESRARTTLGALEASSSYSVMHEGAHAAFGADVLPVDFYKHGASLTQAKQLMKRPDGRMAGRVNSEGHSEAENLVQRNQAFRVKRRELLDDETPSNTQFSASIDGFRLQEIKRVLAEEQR

PopP2, sequence (Q8Y125 1-488): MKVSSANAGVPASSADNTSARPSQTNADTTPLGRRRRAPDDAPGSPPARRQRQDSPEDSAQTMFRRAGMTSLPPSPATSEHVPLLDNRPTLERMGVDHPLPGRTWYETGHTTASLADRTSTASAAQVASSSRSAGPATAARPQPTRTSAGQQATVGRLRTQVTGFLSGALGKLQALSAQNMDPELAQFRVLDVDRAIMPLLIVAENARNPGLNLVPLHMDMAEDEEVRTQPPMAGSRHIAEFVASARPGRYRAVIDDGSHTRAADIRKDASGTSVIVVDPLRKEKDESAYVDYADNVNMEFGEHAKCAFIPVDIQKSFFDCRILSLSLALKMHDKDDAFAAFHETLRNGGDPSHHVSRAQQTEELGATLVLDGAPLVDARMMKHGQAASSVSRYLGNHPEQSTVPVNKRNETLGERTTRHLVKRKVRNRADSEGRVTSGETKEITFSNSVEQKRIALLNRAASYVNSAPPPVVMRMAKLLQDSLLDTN

In the case of `CC(=O)SCCNC(=O)CCNC(=O)[C@H](O)C(C)(C)COP(=O)(O)OP(=O)(O)OC[C@H]1O[C@@H](n2cnc3c(N)ncnc32)[C@H](O)[C@@H]1OP(=O)(O)O` [acetyl-CoA], the “in vitro autoacetylation assay, 14C autoradiography” value at PopP2 is on record as “the mutant PopP2(S447AS449A) is no longer autoacetylated”.

Regarding `O=P(O)(O)O[C@H]1[C@H](OP(=O)(O)O)[C@@H](OP(=O)(O)O)[C@H](OP(=O)(O)O)[C@@H](OP(=O)(O)O)[C@H]1OP(=O)(O)O` [IP6], at HopZ1a, the “enhancement of autoacetylation by IP6” value is given as “c. 40”.

Source of the values: article PMC4768790 (The New phytologist, 2015).
